Calls of active or inactive are those of the source. The calls are words filed in the database; no cut-off is given here. Positions of bridges follow the written chain, without caps; N, C: chain ends. Non-standard residues stand in square brackets, D forms with d. Residues, ends and D or L forms follow the SMILES beside them. *: point of attachment. X1 = CC[C@H](C)CCCCC(=O)*; Dab = NCC[C@H](N)C(=O)O
How the values were obtained:
Staphylococcus aureus [1] = test: Antimicrobial activity against methicillin-resistant Staphylococcus aureus COL incubated for 16 to 20 hrs in 12.5 % muller hinton medium by broth microdilution method; type: functional; details: time 16-20 hrs
Pseudomonas aeruginosa [2] = test: Antibacterial activity against multidrug-resistant Pseudomonas aeruginosa PA14 4.13 harboring phoQ mutant incubated for 16 to 20 hrs in 12.5 % muller hinton medium by broth microdilution method; type: functional; details: time 16-20 hrs
Staphylococcus aureus [3] = test: Antimicrobial activity against methicillin-resistant Staphylococcus aureus COL incubated for 16 to 20 hrs in full muller hinton medium by broth microdilution method; type: functional; details: time 16-20 hrs
Acinetobacter baumannii [4] = test: Antimicrobial activity against Acinetobacter baumannii ATCC 19606 incubated for 16 to 20 hrs in 12.5 % muller hinton medium by broth microdilution method; type: functional; details: time 16-20 hrs
Pseudomonas aeruginosa [5] = test: Antibacterial activity against multidrug-resistant Pseudomonas aeruginosa PA14 2P4 harboring pmrB mutant incubated for 16 to 20 hrs in full muller hinton medium by broth microdilution method; type: functional; details: time 16-20 hrs
Pseudomonas aeruginosa [6] = test: Antibacterial activity against multidrug-resistant Pseudomonas aeruginosa clinical isolate ZEM9A incubated for 16 to 20 hrs in full muller hinton medium by broth microdilution method; type: functional; details: time 16-20 hrs
Klebsiella pneumoniae [7] = test: Antibacterial activity against multidrug-resistant Klebsiella pneumoniae clinical isolate OXA-48 incubated for 16 to 20 hrs in 12.5 % muller hinton medium by broth microdilution method; type: functional; details: time 16-20 hrs
Klebsiella pneumoniae [8] = test: Antibacterial activity against multidrug-resistant Klebsiella pneumoniae clinical isolate OXA-48 incubated for 16 to 20 hrs in full muller hinton medium by broth microdilution method; type: functional; details: time 16-20 hrs
Pseudomonas aeruginosa [9] = test: Antibacterial activity against multidrug-resistant Pseudomonas aeruginosa PA14 4.18 harboring pmrB mutant incubated for 16 to 20 hrs in full muller hinton medium by broth microdilution method; type: functional; details: time 16-20 hrs
rRNA = test: Binding affinity to [gamma32 P-ATP] labeled Escherichia coli MG1655 23S ribosomal RNA (5-CCCTTGGGACCTACTTC-3') at U2506 position assessed as increase in band intensity at 1 uM incubated for 2.5 hrs in full muller hinton medium by CMCT based gel electrophoresis; type: nucleic-acid assay
[10] = Hemolytic activity in human RBC incubated for 4 hrs; type: toxicity, cell-based; details: erythrocyte
Pseudomonas aeruginosa [11] = test: Antibacterial activity against multidrug-resistant Pseudomonas aeruginosa PA14 4.18 harboring pmrB mutant incubated for 16 to 20 hrs in 12.5 % muller hinton medium by broth microdilution method; type: functional; details: time 16-20 hrs
Klebsiella pneumoniae [12] = test: Antimicrobial activity against Klebsiella pneumoniae NCTC 418 incubated for 16 to 20 hrs in 12.5 % muller hinton medium by broth microdilution method; type: functional; details: time 16-20 hrs
Pseudomonas aeruginosa [13] = test: Antimicrobial activity against Pseudomonas aeruginosa PAO1 incubated for 16 to 20 hrs in 12.5 % muller hinton medium by broth microdilution method; type: functional; details: time 16-20 hrs
Pseudomonas aeruginosa [14] = test: Antibacterial activity against multidrug-resistant Pseudomonas aeruginosa PA14 4.13 harboring phoQ mutant incubated for 16 to 20 hrs in full muller hinton medium by broth microdilution method; type: functional; details: time 16-20 hrs
Escherichia coli [15] = test: Antimicrobial activity against Escherichia coli W3110 incubated for 16 to 20 hrs in full muller hinton medium by broth microdilution method; type: functional; details: time 16-20 hrs
Klebsiella pneumoniae [16] = test: Antimicrobial activity against Klebsiella pneumoniae NCTC 418 incubated for 16 to 20 hrs in full muller hinton medium by broth microdilution method; type: functional; details: time 16-20 hrs
Pseudomonas aeruginosa [17] = test: Antibacterial activity against multidrug-resistant Pseudomonas aeruginosa PA14 incubated for 16 to 20 hrs in full muller hinton medium by broth microdilution method; type: functional; details: time 16-20 hrs
Acinetobacter baumannii [18] = test: Antimicrobial activity against Acinetobacter baumannii ATCC 19606 incubated for 16 to 20 hrs in full muller hinton medium by broth microdilution method; type: functional; details: time 16-20 hrs
Enterobacter cloacae [19] = test: Antibacterial activity against multidrug-resistant Enterobacter cloacae incubated for 16 to 20 hrs in full muller hinton medium by broth microdilution method; type: functional; details: time 16-20 hrs
Pseudomonas aeruginosa [20] = test: Antibacterial activity against multidrug-resistant Pseudomonas aeruginosa clinical isolate ZEM9A incubated for 16 to 20 hrs in 12.5 % muller hinton medium by broth microdilution method; type: functional; details: time 16-20 hrs
Pseudomonas aeruginosa [21] = test: Antibacterial activity against multidrug-resistant Pseudomonas aeruginosa clinical isolate ZEM-1A incubated for 16 to 20 hrs in 12.5 % muller hinton medium by broth microdilution method; type: functional; details: time 16-20 hrs
Pseudomonas aeruginosa [22] = test: Antibacterial activity against multidrug-resistant Pseudomonas aeruginosa clinical isolate ZEM-1A incubated for 16 to 20 hrs in full muller hinton medium by broth microdilution method; type: functional; details: time 16-20 hrs
Pseudomonas aeruginosa [23] = test: Antimicrobial activity against Pseudomonas aeruginosa PAO1 incubated for 16 to 20 hrs in full muller hinton medium by broth microdilution method; type: functional; details: time 16-20 hrs
Pseudomonas aeruginosa [24] = test: Antibacterial activity against multidrug-resistant Pseudomonas aeruginosa PA14 incubated for 16 to 20 hrs in 12.5 % muller hinton medium by broth microdilution method; type: functional; details: time 16-20 hrs
Bacteria = test: Binding affinity to his-tagged DnaK (unknown origin) expressed in Escherichia coli BL21 (DE3) in dilute muller hinton medium by microscale thermophoresis analysis
Pseudomonas aeruginosa [25] = test: Antibacterial activity against multidrug-resistant Pseudomonas aeruginosa PA14 2P4 harboring pmrB mutant incubated for 16 to 20 hrs in 12.5 % muller hinton medium by broth microdilution method; type: functional; details: time 16-20 hrs
Escherichia coli [26] = test: Antimicrobial activity against Escherichia coli W3110 incubated for 16 to 20 hrs in 12.5 % muller hinton medium by broth microdilution method; type: functional; details: time 16-20 hrs
Enterobacter cloacae [27] = test: Antibacterial activity against multidrug-resistant Enterobacter cloacae incubated for 16 to 20 hrs in 12.5 % muller hinton medium by broth microdilution method; type: functional; details: time 16-20 hrs

Row | Compound | MIC (Staphylococcus aureus [1]) [µg/mL] | MIC (Pseudomonas aeruginosa [2]) [µg/mL] | MIC (Staphylococcus aureus [3]) [µg/mL] | MIC (Acinetobacter baumannii [4]) [µg/mL] | MIC (Pseudomonas aeruginosa [5]) [µg/mL] | MIC (Pseudomonas aeruginosa [6]) [µg/mL] | MIC (Klebsiella pneumoniae [7]) [µg/mL] | MIC (Klebsiella pneumoniae [8]) [µg/mL] | MIC (Pseudomonas aeruginosa [9]) [µg/mL] | Activity (rRNA) | MHC [10] [µg/mL] | MIC (Klebsiella pneumoniae [12]) [µg/mL] | MIC (Pseudomonas aeruginosa [14]) [µg/mL] | MIC (Klebsiella pneumoniae [16]) [µg/mL] | MIC (Pseudomonas aeruginosa [17]) [µg/mL] | MIC (Acinetobacter baumannii [18]) [µg/mL] | MIC (Enterobacter cloacae [19]) [µg/mL] | MIC (Pseudomonas aeruginosa [21]) [µg/mL] | MIC (Pseudomonas aeruginosa [22]) [µg/mL] | MIC (Pseudomonas aeruginosa [23]) [µg/mL] | other results
1 | CC[C@H](C)[C@H](NC(=O)[C@H](CCCNC(=N)N)NC(=O)[C@H](CCCNC(=N)N)NC(=O)[C@@H]1CCCN1C(=O)[C@@H]1CCCN1C(=O)[C@H](CCCNC(=N)N)NC(=O)[C@@H]1CCCN1C(=O)[C@H](CCCNC(=N)N)NC(=O)[C@@H]1CCCN1C(=O)[C@@H](CC(C)C)NC(=O)[C@H](Cc1ccc(O)cc1)NC(=O)[C@@H]1CCCN1C(=O)[C@@H]1CCCN1C(=O)[C@H](CCCCN)NC(=O)[C@H](CC(=O)O)NC(=O)[C@@H](N)C(C)C)C(=O)N[C@@H](Cc1ccc(O)cc1)C(=O)N[C@@H](CC(N)=O)C(=O)N[C@@H](CCCNC(=N)N)C(N)=O (H-VDKPPY[dL]PRPRPPRRIYNR-NH2) | > 64 | > 32 | > 64 | > 16 | > 64 | > 64 | > 64 | > 64 | > 32 | inactive | > 1000 | > 16 | > 32 | > 64 | > 32 | > 64 | > 64 | > 64 | > 64 | > 64 | MIC (Pseudomonas aeruginosa [11]): > 32 µg/mL; MIC (Pseudomonas aeruginosa [13]): > 16 µg/mL; MIC (Escherichia coli [15]): > 64 µg/mL; MIC (Pseudomonas aeruginosa [20]): > 64 µg/mL; MIC (Pseudomonas aeruginosa [24]): > 32 µg/mL
2 | CC[C@@H](C)[C@@H](NC(=O)[C@@H](CCCNC(=N)N)NC(=O)[C@@H](CCCNC(=N)N)NC(=O)[C@H]1CCCN1C(=O)[C@H]1CCCN1C(=O)[C@@H](CCCNC(=N)N)NC(=O)[C@H]1CCCN1C(=O)[C@@H](CCCNC(=N)N)NC(=O)[C@H]1CCCN1C(=O)[C@@H](CC(C)C)NC(=O)[C@@H](Cc1ccc(O)cc1)NC(=O)[C@H]1CCCN1C(=O)[C@H]1CCCN1C(=O)[C@@H](CCCCN)NC(=O)[C@@H](CC(=O)O)NC(=O)[C@H](N)C(C)C)C(=O)N[C@H](Cc1ccc(O)cc1)C(=O)N[C@H](CC(N)=O)C(=O)N[C@H](CCCNC(=N)N)C(N)=O (H-[dV][dD][dK][dP][dP][dY][dL][dP][dR][dP][dR][dP][dP][dR][dR][dI][dY][dN][dR]-NH2) |  |  | > 64 |  | > 64 | > 64 |  | > 64 | > 64 | inactive | > 1000 | > 16 | > 64 | > 64 | > 64 | > 64 | > 64 | > 64 | > 64 | > 64 | Activity (Bacteria): inactive
3 | CC(C)CCCCC(=O)N[C@@H](CCN)C(=O)N[C@H](C(=O)N[C@@H](CCN)C(=O)N[C@H]1CCNC(=O)[C@H]([C@@H](C)O)NC(=O)[C@H](CCN)NC(=O)[C@H](CCN)NC(=O)[C@H](CC(C)C)NC(=O)[C@@H](Cc2ccccc2)NC(=O)[C@H](CCN)NC1=O)[C@@H](C)O.CC[C@H](C)CCCCC(=O)N[C@@H](CCN)C(=O)N[C@H](C(=O)N[C@@H](CCN)C(=O)N[C@H]1CCNC(=O)[C@H]([C@@H](C)O)NC(=O)[C@H](CCN)NC(=O)[C@H](CCN)NC(=O)[C@H](CC(C)C)NC(=O)[C@@H](Cc2ccccc2)NC(=O)[C@H](CCN)NC1=O)[C@@H](C)O (X1-[Dab]T[Dab][Dab][Dab][dF]L[Dab][Dab]T; lactam 4-C) | 16 | 2 | > 16 | 0.5 | 4 | > 64 | 1 | 1 | 2 |  |  | 1 | 2 | 0.5 | > 0.5 | 0.25 | 2 | 8 | 16 | 0.5 | MIC (Pseudomonas aeruginosa [25]): 1 µg/mL; MIC (Escherichia coli [26]): 0.2 µg/mL; MIC (Pseudomonas aeruginosa [11]): 1 µg/mL; MIC (Pseudomonas aeruginosa [13]): 1 µg/mL; MIC (Escherichia coli [15]): 0.25 µg/mL; MIC (Enterobacter cloacae [27]): 1 µg/mL; MIC (Pseudomonas aeruginosa [20]): 2 µg/mL; MIC (Pseudomonas aeruginosa [24]): 1 µg/mL

Reference: ChEMBL document CHEMBL6083262, “Stereorandomized Oncocins with Preserved Ribosome Binding and Antibacterial Activity” (J Med Chem, 2024)
